Here are results for 21 compounds from ChEMBL document CHEMBL3259671, “From virtual to clinical: The discovery of PGN-1531, a novel antagonist of the prostanoid EP4 receptor” (Bioorg Med Chem Lett, 2014).

Data set [1] is described as follows: Solubility of the compound in 0.1 M phosphate buffer/[…] KCl at pH 7.4 after 24 hrs. The data set is classed as physicochemical.
Data set [2] in a line: Intrinsic clearance in human hepatocytes. The data set is classed as ADME, cell-based, Hepatocyte. To be noted: read-out: CLH.
Data set [3] in a line: Intrinsic clearance in rat hepatocytes. In kind it is ADME, cell-based, Hepatocyte. To be noted: read-out: CLH.
The nature of data set [4]: Half life in po dosed rat. In kind it is ADME, organism-based. To be noted: in vivo.
The nature of data set [5]: Bioavailability in rat. In kind it is ADME, organism-based. Conditions: in vivo.
A short description of data set [6]: Permeability across human Caco2 cells. Conditions: Caco-2, read-out: permeability. The data set is classed as ADME, cell-based. For orientation: Passage across Caco-2 layers is used to estimate intestinal permeability.

Converted amounts (≈) assume the structure as drawn.

Broadly, the solubility is the concentration that dissolves in the medium under given conditions. Consider `COc1ccc(-c2ccc(OCc3cc(C(=O)NS(=O)(=O)c4ccc(CN)cc4)oc3C)cc2)cc1`, for which the solubility at 24 h in data set [1] was less than 0.6 µg/mL.
On the same count and under the same terms, to `COc1ccc(-c2ccc(OCc3cc(C(=O)NS(=O)(=O)c4c(C)noc4C)oc3C)cc2)c(C)c1` belongs 200 µg/mL (≈ 392 µM); to `COc1ccc(-c2ccc(OCc3cc(C(=O)NS(=O)(=O)c4ccccc4C)oc3C)cc2)nc1` [BGC-20-1531 FREE BASE], 10 µg/mL (≈ 20.3 µM).
The term half-life denotes the time needed for the level to fall by half in the phase considered. Read a high half-life as slow loss. A word on the bioavailability: it is the share of a dose that reaches the circulation, judged against a reference dose that is usually intravenous. A higher bioavailability goes with much systemic uptake. With `COc1ccc(-c2ccc(OCc3cc(C(=O)[N-]S(=O)(=O)c4ccccc4C)oc3C)cc2)nc1.[Na+]` [BGC-20-1531], the figures for the CLint scaled in data set [2] and in data set [3] were 6.5 mL/min/kg and 2.7 mL/min/kg, respectively. Besides, the half-life in data set [4] was 138 min. In data set [5], this compound yielded a bioavailability of 84%. In data set [6], the Papp was determined as 14.5 ×10⁻⁶ cm/s.
In the case of `COc1ccc(-c2ccc(OCc3cc(C(=O)NS(=O)(=O)c4ccc(O)cc4)oc3C)cc2)cc1`, the concentration in solution in data set [1] (solubility at 24 h) was 20 µg/mL (≈ 40.5 µM).
The same measure, in the same setting: the same measure for `COc1ccccc1-c1ccc(OCc2cc(C(=O)NS(=O)(=O)c3ccccc3)oc2C)cc1`: 8 µg/mL (≈ 16.8 µM).
The same measure, in the same setting: to `COc1ccc(-c2ccc(OCc3cc(C(=O)NS(=O)(=O)CCCN4CCOCC4)oc3C)cc2)cc1` belongs 20 µg/mL (≈ 37.8 µM); to `Cc1oc(C(=O)NS(=O)(=O)c2ccccc2)cc1CNc1ccc(-c2ccccc2)cc1`, 300 µg/mL (≈ 672 µM); to `Cc1oc(C(=O)NS(=O)(=O)c2ccccc2)cc1COc1ccc(-c2ccc(OC(F)F)cc2)cc1`, less than 0.6 µg/mL.
`Cc1oc(C(=O)NS(=O)(=O)c2ccccc2)cc1COc1ccc(-c2ccccc2)cc1` came in with a solubility at 24 h in data set [1] of 2 µg/mL (≈ 4.47 µM).
Same read-out and setting: the same measure for `COc1ccc(-c2ccc(OCc3cc(C(=O)NS(=O)(=O)c4ccc(C)cn4)oc3C)cc2)cc1`: 5 µg/mL (≈ 10.2 µM); for `Cc1ccccc1S(=O)(=O)NC(=O)c1cc(CNc2ccc(-c3ccccc3)cc2)c(C)o1`: 20 µg/mL (≈ 43.4 µM).
In data set [1], `COc1ccc(-c2ccc(OCc3cc(C(=O)NS(=O)(=O)c4c(C)noc4C)oc3C)cc2)nc1` came in with a solubility at 24 h of 90 µg/mL (≈ 181 µM).
In data set [1], `COc1ccc(-c2ccc(OCc3cc(C(=O)NS(=O)(=O)c4ccccc4)oc3C)cc2)c(C)c1` returned a solubility at 24 h of 20 µg/mL (≈ 40.7 µM).
`COc1ccc(-c2ccc(OCc3cc(C(=O)NS(=O)(=O)c4c(C)noc4C)oc3C)cc2)cc1` came in with a solubility at 24 h in data set [1] of 0.2 µg/mL (≈ 0.403 µM).
Same read-out and setting: to `COc1ccc(-c2ccc(OCc3cc(C(=O)NS(=O)(=O)N(C)C)oc3C)cc2)cc1` belongs 10 µg/mL (≈ 22.5 µM); to `Cc1noc(C)c1S(=O)(=O)NC(=O)c1cc(COc2ccc(-c3ccc(OC(F)F)cc3)cc2)c(C)o1`, less than 0.6 µg/mL; to `CCCS(=O)(=O)NC(=O)c1cc(COc2ccc(-c3ccc(OC)cc3)cc2)c(C)o1`, 7 µg/mL (≈ 15.8 µM).
The same measure, in the same setting: the same measure for `COc1ccc(-c2ccc(OCc3cc(C(=O)NS(=O)(=O)c4ccccc4)oc3C)cc2)cc1`: 11 µg/mL (≈ 23 µM); for `Cc1ccccc1S(=O)(=O)NC(=O)c1cc(CNc2ccc(-c3ccc(OC(F)F)cc3)cc2)c(C)o1`: 20 µg/mL (≈ 38 µM).
Same read-out and setting: to `COc1ccc(-c2ccc(OCc3cc(C(=O)NS(=O)(=O)c4ccccc4)oc3C)cc2)nc1` belongs 30 µg/mL (≈ 62.7 µM).
